Assay results published in US20100040598A1, “KIT OF PARTS COMPRISING AN ACID LABILE AND AN ACID RESISTANT PHARMACEUTICALLY ACTIVE INGREDIENT” (priority 2006, published 2010).
Where two headings read alike, the source gives them in different places.

Tests used:
[1] = Influence of food intake on absorption of clavulanic acid and amoxicillin (plasma pharmacokinetics after test tablet, Comparative Example A); format: in vivo, human; details: for AUC(0-inf) / Cmax / Tmax: human, plasma, oral, one test tablet
Protocol: An exploratory study involving 9 healthy volunteers receive the test product under fasted and fed conditions. The test product is AUGMENTIN™ XR as commercially available by Glaxosmithkline, and is an extended release tablet containing 1000 mg amoxicillin and 62.5 mg clavulanic acid wherein said tablet consists of a fast release layer comprising 562.5 mg as amoxicillin trihydrate and 62.5 mg clavulanic acid as clavulanate potassium salt, and of an extended release layer containing 437.5 mg amoxicillin as amoxicillin sodium salt. The test tablets are magnetically marked as described in Comparative Example B. The volunteers receive one test tablet together with 240 ml of non-carbonated water under the following conditions:
a) under fasting conditions: on one study day after a fasting period of at least 8 hours, b) at the beginning of a meal: on another study day after the first bite of a high […] standardized breakfast A, and c) under fed conditions: on still another study day 30 minutes after a high fat standardized breakfast B.
The standardized breakfast A consists of 2 slices of bread, 40 g cheese, 150 ml orange juice, 150 ml milk, and 20 g of cereals. The standardized breakfast B consists of 2 eggs fried in butter, 2 strips of bacon, 2 slices of toast with butter, 120 ml of hash brown potatoes and 240 ml of whole milk (3.5% fat).
(§1) Blood samples are taken before and 0.5, 1, 1.5, 2, 2.5, 3, 3.5, 4, 4.5, 5, 5.5, 6, 6.5, 7, 7.5, 8, 8.5, 9, 9.5, 10 and 12 hours after ingestion of the test tablet. Blood samples are centrifuged and stored at −80° C. Concentrations of both amoxicillin and clavulanic acid are determined according to known methods using a LC-MS/MS procedure (HPLC coupled Online with MS). Pharmacokinetic parameters are expressed as Cmax (maximal plasma concentration), AUC0→∞ (area under the plasma concentration-time curve extrapolated to infinity) and tmax (time of peak plasma concentration). Cmax and tmax as figuring in Tables 1 and 2 are determined from the 9 single values directly taken from the plasma-concentration-time curve. AUC0→tlast is calculated as follows: AUC0→∞=AUC0→tlast+AUCtlast→∞ wherein AUC0→tlast is the area under the plasma concentration-time curve from time of administration until time of last quantifiable concentration measured, i.e. Ct, and is calculated by using the linear trapezoid rule. AUCtlast→∞ is the extrapolated area to infinity that equals to Ct/Kel wherein Kel is the elimination rate constant. The results are reported using descriptive statistics.
Tables 1 and 2 show the pharmacokinetic parameters of clavulanic acid and amoxicillin, respectively, determined in human plasma from the blood samples taken after administration of one test tablet under fasting or fed conditions or at the beginning of a meal (values are mean values of 9 volunteers).

[2] = Crossover bioavailability study of tablet B before and tablet A after food intake vs both after food intake (Example 3); format: in vivo, human; details: data not shown
Protocol: In this study 20 subjects are randomized in balanced manner into 2 sequences. The subjects in the sequence 1 obtain tablet B under fasting conditions and then tablet A 30 minutes after beginning of food intake whereas the subjects in the second sequence are dosed with both tablets (A and B) 30 minutes after beginning of food intake. The extended release tablet A contains 1125 mg amoxicillin whereas tablet B is an immediate release formulation comprising 875 mg as amoxicillin trihydrate and 125 mg clavulanic acid as clavulanate potassium salt. The volunteers receive […] of non-carbonated water to each tablet administered.
The standardized breakfast (before or between the dosing) consists of 2 eggs fried in butter, 2 strips of bacon, 2 slices of toast with butter, 120 ml of hash brown potatoes and 240 ml of whole milk (3.5% fat).
as §1, with “plasma concentration) and” for “plasma concentration),”, “infinity) which” for “infinity) and tmax (time of peak plasma concentration). Cmax and tmax as figuring in Tables 1 and 2”, “determined analogously as described above in comparative example A. Cmax is” for “determined from the 9 single values”, “curve. AUC0→∞” for “curve. AUC0→tlast”, “constant.” for “constant. The results are reported using descriptive statistics.”

[3] = More extensive study involving 70 volunteers with conventional test tablet without magnetic markers; format: in vivo, human; details: test tablet at the beginning of a meal, data not shown
Protocol: If a conventional combination of an acid labile active ingredient such as clavulanic acid and of an acid resistant active ingredient such as amoxicillin is administered according to a conventional scheme, namely both active ingredients simultaneously, concomitant food intake seems to strongly influence the plasma concentrations and thus bioavailability of the 2 active ingredients. This has been observed in the herein described exploratory study for a conventional combination in the form of a bilayer tablet comprising clavulanic acid for immediate release and amoxicillin for both immediate and extended release such as the herein described test tablet.

[4] = co-administered e.g. with sodium bicarbonate; compared to fasting; cited from earlier work

CC1(C)S[C@@H]2[C@H](NC(=O)[C@H](N)c3ccc(O)cc3)C(=O)N2[C@H]1C(=O)O [amoxicillin]
AUC of amoxicillin ([1]; at the beginning of a meal compared with fasting and fed state): lies in between that observed for the fasting and for the fed state
AUC of amoxicillin ([1]; fasting conditions compared with fed conditions): significantly reduced
Plasma concentrations of amoxicillin (FIG. 2): absorption ([1]; fed conditions compared with fasting conditions): delayed absorption
tmax of amoxicillin ([1]; fed conditions compared with fasting or beginning of a meal): significantly delayed
AUC(0-inf) ([1]; amoxicillin in human plasma, at the beginning of a meal, read-out: AUC0→∞, mean value ± s (converted)): 40900 ng·h/mL
AUC(0-inf) ([1]; amoxicillin in human plasma, at the beginning of a meal, read-out: AUC0→∞, median (converted)): 39100 ng·h/mL
Cmax ([1]; amoxicillin in human plasma, at the beginning of a meal, read-out: Cmax, mean value ± s): 10400 ± 2000 ng/mL
Cmax ([1]; amoxicillin in human plasma, at the beginning of a meal, read-out: Cmax, median): 9870 ng/mL
Tmax ([1]; amoxicillin in human plasma, at the beginning of a meal, read-out: tmax, mean value ± s (converted)): ~1.38 h
Tmax ([1]; amoxicillin in human plasma, at the beginning of a meal, read-out: tmax, median (converted)): 1 h
AUC(0-inf) ([1]; amoxicillin in human plasma, fasting conditions, 9 volunteers, read-out: AUC0→∞, mean value ± s (converted)): 30900 ng·h/mL
AUC(0-inf) ([1]; amoxicillin in human plasma, fasting conditions, read-out: AUC0→∞, median (converted)): 29000 ng·h/mL
Cmax ([1]; amoxicillin in human plasma, fasting conditions, read-out: Cmax, mean value ± s): 10300 ± 1200 ng/mL
Cmax ([1]; amoxicillin in human plasma, fasting conditions, read-out: Cmax, median): 10300 ng/mL
Tmax ([1]; amoxicillin in human plasma, fasting conditions, read-out: tmax, mean value ± s (converted)): ~1.5 h
Tmax ([1]; amoxicillin in human plasma, fasting conditions, read-out: tmax, median (converted)): 1.5 h
AUC(0-inf) ([1]; amoxicillin in human plasma, fed conditions (30 minutes after high fat breakfast), read-out: AUC0→∞, mean value ± s (converted)): 43400 ng·h/mL
AUC(0-inf) ([1]; amoxicillin in human plasma, fed conditions, read-out: AUC0→∞, median (converted)): 42100 ng·h/mL
Cmax ([1]; amoxicillin in human plasma, fed conditions, read-out: Cmax, mean value ± s): 9880 ± 2300 ng/mL
Cmax ([1]; amoxicillin in human plasma, fed conditions, read-out: Cmax, median): 9830 ng/mL
Tmax ([1]; amoxicillin in human plasma, fed conditions, read-out: tmax, mean value ± s (converted)): 2.28 h
Tmax ([1]; amoxicillin in human plasma, fed conditions, read-out: tmax, median (converted)): 1.5 h
Maximum plasma concentrations Cmax of amoxicillin ([1]; test tablet after food intake compared with fasting): slightly lower
Initial maximum plasma concentrations Cmax of amoxicillin ([2]; condition a) vs condition b)): higher initial maximum plasma concentrations
Plasma level of amoxicillin (duration) ([2]; condition a) vs condition b)): slightly prolonged

O=C(O)[C@H]1/C(=C/CO)O[C@@H]2CC(=O)N21 [clavulanic acid]
Cmax and AUC of clavulanic acid ([1]; fed state compared with fasting conditions): significantly reduced
AUC(0-inf) ([1]; clavulanic acid in human plasma, at the beginning of a meal, read-out: AUC0→∞, mean value ± s (converted)): 3280 ng·h/mL
AUC(0-inf) ([1]; clavulanic acid in human plasma, at the beginning of a meal, read-out: AUC0→∞, median (converted)): 2880 ng·h/mL
Cmax ([1]; clavulanic acid in human plasma, at the beginning of a meal, read-out: Cmax, mean value ± s): 1390 ± 400 ng/mL
Cmax ([1]; clavulanic acid in human plasma, at the beginning of a meal, read-out: Cmax, median): 1240 ng/mL
Tmax ([1]; clavulanic acid in human plasma, at the beginning of a meal, read-out: tmax, mean value ± s (converted)): 1.38 h
Tmax ([1]; clavulanic acid in human plasma, at the beginning of a meal, read-out: tmax, median (converted)): 1.5 h
AUC(0-inf) ([1]; clavulanic acid in human plasma, fasting conditions, 9 volunteers, read-out: AUC0→∞, mean value ± s (converted)): 3300 ng·h/mL
Cmax ([1]; clavulanic acid in human plasma, fasting conditions, 9 volunteers, read-out: Cmax, mean value ± s): 1400 ± 400 ng/mL
Tmax ([1]; clavulanic acid in human plasma, fasting conditions, 9 volunteers, read-out: tmax, mean value ± s (converted)): ~1.5 h
AUC(0-inf) ([1]; clavulanic acid in human plasma, fasting conditions, read-out: AUC0→∞, median (converted)): 3020 ng·h/mL
Cmax ([1]; clavulanic acid in human plasma, fasting conditions, read-out: Cmax, median): 1350 ng/mL
Tmax ([1]; clavulanic acid in human plasma, fasting conditions, read-out: tmax, median (converted)): 1.5 h
AUC(0-inf) ([1]; clavulanic acid in human plasma, fed conditions (30 minutes after high fat breakfast), read-out: AUC0→∞, mean value ± s (converted)): 2200 ng·h/mL
AUC(0-inf) ([1]; clavulanic acid in human plasma, fed conditions, read-out: AUC0→∞, median (converted)): 2080 ng·h/mL
Cmax ([1]; clavulanic acid in human plasma, fed conditions, read-out: Cmax, mean value ± s): 970 ± 600 ng/mL
Cmax ([1]; clavulanic acid in human plasma, fed conditions, read-out: Cmax, median): 830 ng/mL
Tmax ([1]; clavulanic acid in human plasma, fed conditions, read-out: tmax, mean value ± s (converted)): 2.07 h
Tmax ([1]; clavulanic acid in human plasma, fed conditions, read-out: tmax, median (converted)): 2 h
Plasma concentrations of clavulanic acid (FIG. 1) ([1]; test tablet taken after a meal (breakfast B) compared with fasting): significantly reduced
Plasma concentrations of clavulanic acid ([2]; condition a) tablet B fasting, tablet A 30 minutes after beginning of food intake, vs b) both tablets 30 minutes after beginning of food intake): significantly higher
Cmax and AUC0→∞ of clavulanic acid ([2]; condition a) vs condition b)): significantly higher
Bioavailability of clavulanic acid [3]: slightly decreased

COc1ccc2[nH]c([S+]([O-])Cc3ncc(C)c(OC)c3C)nc2c1 (stereo not shown) [omeprazole]
Bioavailability, effect of food ingestion [4]: reduces bioavailability
